{
  "source": "paper PMC3460729",
  "about": "“Innate immune properties of selected human neuropeptides against Moraxella catarrhalis and nontypeable Haemophilus influenzae” (BMC Immunology, 2012)",
  "key": {"E. coli ML-35p": {"system": "E. coli ML-35p", "experiment": "ONPG-mediated β-galactosidase membrane permeability assay", "assay_type": "cell-based, Escherichia coli", "details": "for time of maximal OD increase (ONPG influx): 100 μM neuropeptide; for ID50 (inducible dose) for intracellular influx of ONPG: dose causing 50% increase in OD405 in reference to chloroform-inducible maximum at 45 min, 10^6 CFU/ml, NaPB pH 7.4, 3 mM ONPG, 37°C, triplicate", "experimental": "To measure the activity of neuropeptides in permeabilization of bacterial membrane, the ONPG-mediated β-galactosidase microplate assay was used. Permeabilization was measured using E. coli ML-35 with constitutive cytoplasmic β-galactosidase activity as previously described. Briefly, 18 h E. coli ML-35p in TSB was recultivated in TSB until mid-log phase (OD600 = 0.5). Flasks were put on ice for 20 min, and 2 ml of bacterial suspensions were transferred to Eppendorf tubes, washed twice with 10 mM sodium phosphate NaPB (pH 7.4) and suspended in NaPB to OD600 = 0.5. […] Microplates were incubated at 37°C for 1.5 h and optical densities were measured every 15 minutes at λ=405 nm (spectrophotometer Opsys MR Dynex Technologist). All the assays were performed in triplicate. Two positive controls were used: polymyxin B at the final concentration of 1 μg/ml as an established model of peptide permeabilizing action, and 20% chloroform (v/v). […] The molar concentration of NP that caused such increase was extrapolated from a linear portion of NP titration curve. Negative controls constituted bacteria incubated with NaPB and ONPG but without neuropeptides."}, "M. catarrhalis Mc5, Mc6": {"system": "M. catarrhalis Mc5, Mc6", "experiment": "Time kill assay from 0 to 1.5 h", "assay_type": "cell-based, Moraxella catarrhalis", "details": "100 μM", "experimental": "(§1) For the time kill assay from 0 to 1.5 h, overnight cultures of Mc and NTHi were inoculated into new medium and incubated under the relevant conditions until early log-phase (OD600 = 0.25–0.3). The bacteria were diluted in 10 mM sodium phosphate buffer, NaPB, (pH 7.4) containing 1% (w/v) BHI to obtain ~2 x 10^6 CFU/ml. […] After each time of incubation the suspensions were 10-fold serially diluted with 10 mM NaPB-1% BHI and 20 μl aliquots were plated in triplicate on BHI (M. catarrhalis) or HAEM (H. influenzae) agar plates. The plates were incubated overnight at 37°C in 5% CO2 conditions. Simultaneously, the incubation of bacteria in the presence of an appropriate diluent was included for positive control of bacterial growth. The colony counts and CFU/ml were calculated next day. The bactericidal activity of neuropeptides was expressed as survival ratios determined as the numbers of CFU after neuropeptide incubation divided by the numbers of CFU estimated from a control plate (time 0). All antimicrobial assays were performed at least two times in triplicate."}, "[1]": {"system": "nontypeable H. influenzae NTHi3, NTHi6", "experiment": "Time kill assay from 0 to 1.5 h", "assay_type": "cell-based, Haemophilus influenzae", "details": "100 μM, clinical isolates of H. influenzae", "experimental": "as §1"}, "human PMNs [2]": {"system": "human PMNs", "experiment": "PMA-induced chemiluminescence in PMNs", "assay_type": "cell-based", "details": "0.1 μM PMA, 0 to 60 min; five independent experiments in triplicate, 5 donors", "experimental": "Reactive oxygen species (ROS) formation by PMNs was measured using luminol-dependent chemiluminescence assay (CL) in white flat-bottom 96-well microplates (NUNC, Denmark). The reaction mixture of total volume 200 μl in each well contained: 100 μl of PMN suspension in HBSS–Ca^++Mg^++ (10^5 cells/well), 40 μl of luminol (50 μM/well), 40 μl of fMLP (0.2 μM/well), 20 μl of particular NP (in the range 10^−12–10^−8 M/well). In other experiments, the respiratory burst was triggered by phagocytosis of 40 μl heat killed (56°C/30 min) M. catarrhalis ATCC 25238 or H. influenzae ATCC 49247 at concentration of ½ of OD600 = 1 or OD600 = 1, respectively. […] The PMA stimulus at 0.1 μM final concentration was used as positive control of the relevant oxidative stress. The CL kinetics was measured at constant 37°C temperature using luminometer (Microlumat, LB96P, Berthold) and recorded as relative light units (RLU). Measuring conditions for fMLP were: interval (46 s), run time (up to 30 min). The conditions for bacterial and PMA stimulation were: interval (83 s), run time (up to 60 min). The maximal value of CL response curve was expressed as peak height (PHCL) for fMLP stimulant. In other cases the area under chemiluminescence curve (AUCCL) was calculated. Each sample was run in triplicate and the values were averaged. […] Results were expressed as mean ± SD. […]"}, "human PMNs [3]": {"system": "human PMNs", "experiment": "fMLF-induced ROS generation by PMNs, luminol-dependent chemiluminescence", "assay_type": "cell-based", "details": "for ROS release [% of control]: 0.2 μM fMLF, peak height PHCL, mean of three independent experiments", "experimental": "(§2) Polymorphonuclear leukocytes (PMNs) from healthy young adult volunteers were isolated from venous blood samples anticoagulated with Lithium-heparin (7.5 ml) by ficoll (Aqua-Med, Poland) density gradient centrifugation (2000 rpm/30 min), followed by hypotonic lysis of erythrocytes with a lysing buffer (0.83% NH4Cl, 0.1% KHCO3, EDTA, pH 7.4). After two washes (1400 rpm/10 min) in PBS, PMNs were resuspended to the final concentration of […] cells/ml in phagocytic buffer: HBSS with Ca^++ and Mg^++ supplemented with 1% HiFBS. The purity of granulocyte suspensions was checked using 15 μg/ml of acridine orange. […] Isolated PMNs were kept for 30 min at 37°C and 5% CO2 until used.\nReactive oxygen species (ROS) formation by PMNs was measured using luminol-dependent chemiluminescence assay (CL) in white flat-bottom 96-well microplates (NUNC, Denmark). The reaction mixture of total volume 200 μl in each well contained: 100 μl of PMN suspension in HBSS–Ca^++Mg^++ (10^5 cells/well), 40 μl of luminol (50 μM/well), 40 μl of fMLP (0.2 μM/well), 20 μl of particular NP (in the range 10^−12–10^−8 M/well). In other experiments, the respiratory burst was triggered by phagocytosis of 40 μl heat killed (56°C/30 min) M. catarrhalis ATCC 25238 or H. influenzae ATCC 49247 at concentration of ½ of OD600 = 1 or OD600 = 1, respectively. […] The PMA stimulus at 0.1 μM final concentration was used as positive control of the relevant oxidative stress. The CL kinetics was measured at constant 37°C temperature using luminometer (Microlumat, LB96P, Berthold) and recorded as relative light units (RLU). Measuring conditions for fMLP were: interval (46 s), run time (up to 30 min). The conditions for bacterial and PMA stimulation were: interval (83 s), run time (up to 60 min). The maximal value of CL response curve was expressed as peak height (PHCL) for fMLP stimulant. In other cases the area under chemiluminescence curve (AUCCL) was calculated. Each sample was run in triplicate and the values were averaged. […] Results were expressed as mean ± SD."}, "[4]": {"system": "human PMNs stimulated with M. catarrhalis ATCC 25238", "experiment": "M. catarrhalis-stimulated ROS generation by PMNs, luminol-dependent chemiluminescence", "assay_type": "cell-based", "details": "10^−8 M NP, nonopsonized M. catarrhalis; mean ± SD, n = 5-6 donors", "experimental": "as §2\nReactive oxygen species (ROS) formation by PMNs was measured using luminol-dependent chemiluminescence assay (CL) in white flat-bottom 96-well microplates (NUNC, Denmark). The reaction mixture of total volume 200 μl in each well contained: 100 μl of PMN suspension in HBSS–Ca^++Mg^++ (10^5 cells/well), 40 μl of luminol (50 μM/well), 40 μl of fMLP (0.2 μM/well), 20 μl of particular NP (in the range 10^−12–10^−8 M/well). […] The maximal value of CL response curve was expressed as peak height (PHCL) for fMLP stimulant. In other cases the area under chemiluminescence curve (AUCCL) was calculated. […] Results were expressed as mean ± SD."}},
  "note": "Marks after values point to notes of the source that are not given here.",
  "data": [
    {"smiles": "C[C@H](N)C(=O)NCC(=O)N[C@H]1CSSC[C@@H](C(=O)O)NC(=O)[C@H](CO)NC(=O)[C@H]([C@@H](C)O)NC(=O)[C@H](Cc2ccccc2)NC(=O)[C@H]([C@@H](C)O)NC(=O)[C@H](CCCCN)NC(=O)[C@H](Cc2c[nH]c3ccccc23)NC(=O)[C@H](Cc2ccccc2)NC(=O)[C@H](Cc2ccccc2)NC(=O)[C@H](CC(N)=O)NC(=O)[C@H](CCCCN)NC1=O", "note": "[SOM, somatostatin]", "values": [
      {"measurement": "time of maximal OD increase (ONPG influx)", "setting": "E. coli ML-35p", "value": 90, "unit": "min"},
      {"measurement": "ID50 (inducible dose) for intracellular influx of ONPG", "setting": "E. coli ML-35p", "value": 104.1, "unit": "µM"},
      {"measurement": "type of antibacterial activity", "setting": "M. catarrhalis Mc5, Mc6; both Mc strains", "value": "bacteriostatic"},
      {"measurement": "type of antibacterial activity", "setting": "[1]", "value": "bacteriostatic"}
    ]},
    {"smiles": "CCCCCCCCCCCCCC(=O)O[C@@H]1[C@@H](C)[C@@]2(O)[C@@H](C=C(CO)C[C@]3(O)C(=O)C(C)=C[C@@H]23)[C@@H]2C(C)(C)[C@]12OC(C)=O", "note": "[PMA, phorbol myristate acetate]", "values": [
      {"measurement": "log10 of mean AUCCL ± SEM", "setting": "human PMNs [2]", "value": "6.05 ± 4.32"}
    ]},
    {"smiles": "CSCC[C@H](NC(=O)[C@H](CC(C)C)NC(=O)CNC(=O)[C@H](Cc1ccccc1)NC(=O)[C@H](Cc1ccccc1)NC(=O)[C@H](CCC(N)=O)NC(=O)[C@H](CCC(N)=O)NC(=O)[C@@H]1CCCN1C(=O)[C@H](CCCCN)NC(=O)[C@@H]1CCCN1C(=O)[C@@H](N)CCCNC(=N)N)C(N)=O", "note": "[SP, substance P]", "values": [
      {"measurement": "ROS release [% of control]", "setting": "human PMNs [3]; 10^-8 M NP", "value": "179.18^a % of control"},
      {"measurement": "ROS release [% of control]", "setting": "human PMNs [3]; 10^-10 M NP", "value": "160.36^a % of control"},
      {"measurement": "ROS release [% of control]", "setting": "human PMNs [3]; 10^-12 M NP", "value": "140.83^a % of control"},
      {"measurement": "activation of respiratory burst of PMNs", "setting": "human PMNs [3]; neuropeptide alone, without stimulus", "value": "did not activate"},
      {"measurement": "time of maximal OD increase (ONPG influx)", "setting": "E. coli ML-35p", "value": 90, "unit": "min"},
      {"measurement": "ID50 (inducible dose) for intracellular influx of ONPG", "setting": "E. coli ML-35p", "value": 29.2, "unit": "µM"},
      {"measurement": "culture survived", "setting": "M. catarrhalis Mc5, Mc6; Mc5 and Mc6, 0.5 h", "value": "~100", "unit": "%"},
      {"measurement": "increase of mean AUCCL", "setting": "[4]", "value": "14.2 ± 3.4", "unit": "%"}
    ]}
  ]
}
